This note sets out measurements from patent publication US5620958A, “Bradykinin antagonists” (Coretech, Inc., priority 1994, dated 1997).

Like-named read-outs stand apart in the source and are kept apart here. Peptide text beside a SMILES is read from it. Where only a bound is given, the exact number is not on record here.

The target in test [1] is T1, BK2 receptor (Cavia porcellus, UniProt O70526).
T1 construct: tested for activity on guinea pig ileum in vitro on the standard tissue bath/strain gauge system; from tissue; host or cells: guinea pig ileum
T1 sequence (O70526 1-372): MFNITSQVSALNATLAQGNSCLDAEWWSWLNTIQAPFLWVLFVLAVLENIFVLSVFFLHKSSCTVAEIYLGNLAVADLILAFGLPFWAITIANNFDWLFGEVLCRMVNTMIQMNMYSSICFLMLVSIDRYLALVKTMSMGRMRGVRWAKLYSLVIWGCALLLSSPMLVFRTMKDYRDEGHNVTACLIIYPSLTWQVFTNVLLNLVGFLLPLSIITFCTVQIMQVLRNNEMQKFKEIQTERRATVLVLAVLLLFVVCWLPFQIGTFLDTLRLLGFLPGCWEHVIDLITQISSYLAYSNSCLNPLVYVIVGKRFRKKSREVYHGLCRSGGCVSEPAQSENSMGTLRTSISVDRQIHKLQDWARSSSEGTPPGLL
The test can be described thus: guinea-pig ileum (GPI) in vitro, antagonism of BK. It counts as cell-based. The protocol: Thus, in vitro studies were performed on standard assay systems, namely, guinea-pig ileum (GPI), rat uterus (RU) and rabbit jugular vein (RJV). […] The potency of each compound was assessed as a pA2 value according to the method of Arunlakshana & Schild, Br. J. Pharmacol. Chemother., 1.4:48-58 (1959). The pA2 can be defined as the negative logarithm of the molar concentration of the antagonist in the presence of which the potency of the agonist is reduced two-fold, i.e., twice the amount of agonist is required to produce a given response in the presence of, than in the absence of, the antagonist. A high potency of antagonism is indicated by a high pA2 value, i.e., a low concentration of antagonist is effective.
The percentage recovery (% Rec) was also determined for compounds with respect to each assay.
The various compounds identified in Table B below were prepared following the procedure of Example 1 with the Cys moiety introduced into the parent CP-0088 at the position indicated followed by reaction between the sulfhydryl group of the Cys residue and BMH to provide dimers as indicated. The Cys-modified monomers and the resultant dimers were tested for activity on guinea pig ileum in vitro on the standard tissue bath/strain gauge system as before.

For test [2], the target named is T2, BK2 receptor (Rattus norvegicus, UniProt P25023).
T2 sequence (P25023 1-396): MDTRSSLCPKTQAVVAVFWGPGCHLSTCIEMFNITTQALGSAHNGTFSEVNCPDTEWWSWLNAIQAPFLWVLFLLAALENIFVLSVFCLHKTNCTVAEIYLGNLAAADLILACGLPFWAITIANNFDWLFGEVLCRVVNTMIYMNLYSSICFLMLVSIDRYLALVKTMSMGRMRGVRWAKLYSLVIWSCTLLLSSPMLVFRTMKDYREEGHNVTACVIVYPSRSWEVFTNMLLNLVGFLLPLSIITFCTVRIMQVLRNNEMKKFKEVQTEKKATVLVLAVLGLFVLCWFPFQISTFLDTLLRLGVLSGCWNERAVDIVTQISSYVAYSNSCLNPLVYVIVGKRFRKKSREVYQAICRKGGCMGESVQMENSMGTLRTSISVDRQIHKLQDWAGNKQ
In words: cell-based.

Another test deals with T3, NK1 receptor (Cavia porcellus, UniProt P30547).
T3 construct: a standard guinea pig ileum assay of NK1 receptor activity; from tissue; host or cells: guinea pig ileum
T3 sequence (P30547 whole entry): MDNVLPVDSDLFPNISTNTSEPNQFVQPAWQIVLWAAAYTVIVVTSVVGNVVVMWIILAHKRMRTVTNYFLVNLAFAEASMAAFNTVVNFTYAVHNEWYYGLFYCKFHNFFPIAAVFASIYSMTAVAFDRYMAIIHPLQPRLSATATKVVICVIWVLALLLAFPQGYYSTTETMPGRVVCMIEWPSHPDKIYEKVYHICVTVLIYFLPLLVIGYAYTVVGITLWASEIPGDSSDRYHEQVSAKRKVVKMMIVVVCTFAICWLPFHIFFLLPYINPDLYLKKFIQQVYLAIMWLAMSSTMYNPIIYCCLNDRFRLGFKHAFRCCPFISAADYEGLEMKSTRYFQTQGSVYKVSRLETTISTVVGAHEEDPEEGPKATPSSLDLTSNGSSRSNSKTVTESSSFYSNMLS
The test can be described thus: guinea pig ileum assay of NK1 receptor activity against substance P. It counts as cell-based. The conditions noted are these: Table O; read-out: NK1 : GPI pA2 (± s.e.m.) (converted). The source says: In order to illustrate the potential of blocking two different receptor populations with a single compound a consensus NK1 receptor antagonist (DArg-DPro-Lys-Pro-Gln-Asn-DPhe-Phe-DTrp-Leu-Nle) was synthesized. […] Once the activity of this reference ligand was established, a series of lysine containing monomers formed by the systematic substitution of a lysine residue sequentially through the reference peptide was synthesized.

Where [3] appears, read: Table B, read-out: pA2 GUINEA PIG ILEUM (converted).

As to `CC(C)C[C@H](NC(=O)[C@@H](Cc1ccccc1)NC(=O)[C@H](CO)NC(=O)[C@H](Cc1ccccc1)NC(=O)CNC(=O)[C@@H]1C[C@@H](O)CN1C(=O)[C@@H]1CCCN1C(=O)[C@H](CCCNC(=N)N)NC(=O)[C@@H](N)CSC1CC(=O)N(CCCCCCN2C(=O)CC(SC[C@H](N)C(=O)N[C@@H](CCCNC(=N)N)C(=O)N3CCC[C@H]3C(=O)N3C[C@H](O)C[C@H]3C(=O)NCC(=O)N[C@@H](Cc3ccccc3)C(=O)N[C@@H](CO)C(=O)N[C@H](Cc3ccccc3)C(=O)N[C@@H](CC(C)C)C(=O)N[C@@H](CCCNC(=N)N)C(=O)O)C2=O)C1=O)C(=O)N[C@@H](CCCNC(=N)N)C(=O)O` (stereo partly drawn) [CP-0152] (HELM PEPTIDE1{C.R.P.[Hyp].G.F.S.[dF].L.R}|PEPTIDE2{C.R.P.[Hyp].G.F.S.[dF].L.R}|CHEM1{[O=C1CC([*:1])C(=O)N1CCCCCCN1C(=O)CC([*:2])C1=O]}$PEPTIDE1,CHEM1,1:R3-1:R1|PEPTIDE2,CHEM1,1:R3-1:R2$$$V2.0), the Kb at BK2 receptor [1] (setting [3]) was above 1000 nM.

As for `CCCC[C@H](NC(=O)[C@H](CC(C)C)NC(=O)[C@@H](Cc1c[nH]c2ccccc12)NC(=O)[C@H](Cc1ccccc1)NC(=O)[C@@H](Cc1ccccc1)NC(=O)[C@H](CC(N)=O)NC(=O)[C@H](CCC(N)=O)NC(=O)[C@H](CCCCNC(=O)CCCCCN1C(=O)CC(SC[C@H](NC(=O)[C@H](Cc2ccccc2)NC(=O)CNC(=O)[C@@H]2C[C@@H](O)CN2C(=O)[C@@H]2CCCN2C(=O)[C@H](CCCNC(=N)N)NC(=O)[C@H](N)CCCNC(=N)N)C(=O)N[C@H](Cc2ccccc2)C(=O)N[C@@H](CC(C)C)C(=O)N[C@@H](CCCNC(=N)N)C(=O)O)C1=O)NC(=O)[C@H](CCCCN)NC(=O)[C@H]1CCCN1C(=O)[C@H](N)CCCNC(=N)N)C(N)=O` (stereo partly drawn) [CP-0393] (HELM PEPTIDE1{[dR].[dP].K.K.Q.N.[dF].F.[dW].L.[Nle].[am]}|PEPTIDE2{[dR].R.P.[Hyp].G.F.C.[dF].L.R}|CHEM1{[O=C1CC([*:2])C(=O)N1CCCCCC(=O)[*:1]]}$PEPTIDE1,CHEM1,4:R3-1:R1|PEPTIDE2,CHEM1,7:R3-1:R2$$$V2.0), the Kb is 39.8 nM at BK2 receptor [2] and 3160 nM on NK1 receptor.

With `CC(C)C[C@H](NC(=O)[C@@H](Cc1ccccc1)NC(=O)[C@H](CO)NC(=O)[C@H](Cc1ccccc1)NC(=O)CNC(=O)[C@@H]1C[C@@H](O)CN1C(=O)[C@@H]1CCCN1C(=O)[C@H](CCCNC(=N)N)NC(=O)[C@@H](N)CS)C(=O)N[C@@H](CCCNC(=N)N)C(=O)O` [CP-0140] (HELM PEPTIDE1{C.R.P.[Hyp].G.F.S.[dF].L.R}$$$$V2.0), the figures for the Kb at BK2 receptor [2] and on BK2 receptor [1] (setting [3]) were 79.4 nM and 200 nM, respectively.

On to `CC(C)C[C@H](NC(=O)[C@@H](Cc1ccccc1)NC(=O)[C@H](CO)NC(=O)[C@H](Cc1ccccc1)NC(=O)CNC(=O)[C@@H]1C[C@@H](O)CN1C(=O)[C@H](CSC1CC(=O)N(CCCCCCN2C(=O)CC(SC[C@H](NC(=O)[C@H](CCCNC(=N)N)NC(=O)[C@H](N)CCCNC(=N)N)C(=O)N3C[C@H](O)C[C@H]3C(=O)NCC(=O)N[C@@H](Cc3ccccc3)C(=O)N[C@@H](CO)C(=O)N[C@H](Cc3ccccc3)C(=O)N[C@@H](CC(C)C)C(=O)N[C@@H](CCCNC(=N)N)C(=O)O)C2=O)C1=O)NC(=O)[C@H](CCCNC(=N)N)NC(=O)[C@H](N)CCCNC(=N)N)C(=O)N[C@@H](CCCNC(=N)N)C(=O)O` (stereo partly drawn) [CP-0154] (HELM PEPTIDE1{[dR].R.C.[Hyp].G.F.S.[dF].L.R}|PEPTIDE2{[dR].R.C.[Hyp].G.F.S.[dF].L.R}|CHEM1{[O=C1CC([*:1])C(=O)N1CCCCCCN1C(=O)CC([*:2])C1=O]}$PEPTIDE1,CHEM1,3:R3-1:R1|PEPTIDE2,CHEM1,3:R3-1:R2$$$V2.0), for which the Kb at BK2 receptor [1] (setting [3]) is 126 nM.

As for `CC(C)C[C@H](NC(=O)[C@@H](Cc1ccccc1)NC(=O)[C@H](CO)NC(=O)[C@H](Cc1ccccc1)NC(=O)CNC(=O)[C@H](CS)NC(=O)[C@@H]1CCCN1C(=O)[C@H](CCCNC(=N)N)NC(=O)[C@H](N)CCCNC(=N)N)C(=O)N[C@@H](CCCNC(=N)N)C(=O)O` [CP-0143] (HELM PEPTIDE1{[dR].R.P.C.G.F.S.[dF].L.R}$$$$V2.0), the Kb on BK2 receptor [1] (setting [3]) was 200 nM.

As for `CC(C)C[C@H](NC(=O)[C@@H](Cc1ccccc1)NC(=O)[C@H](CSSC[C@H](NC(=O)[C@H](Cc1ccccc1)NC(=O)CNC(=O)[C@@H]1C[C@@H](O)CN1C(=O)[C@@H]1CCCN1C(=O)[C@H](CCCNC(=N)N)NC(=O)[C@H](N)CCCNC(=N)N)C(=O)N[C@H](Cc1ccccc1)C(=O)N[C@@H](CC(C)C)C(=O)N[C@@H](CCCNC(=N)N)C(=O)O)NC(=O)[C@H](Cc1ccccc1)NC(=O)CNC(=O)[C@@H]1C[C@@H](O)CN1C(=O)[C@@H]1CCCN1C(=O)[C@H](CCCNC(=N)N)NC(=O)[C@H](N)CCCNC(=N)N)C(=O)N[C@@H](CCCNC(=N)N)C(=O)O` [CP-0138] (HELM PEPTIDE1{[dR].R.P.[Hyp].G.F.C.[dF].L.R}|PEPTIDE2{[dR].R.P.[Hyp].G.F.C.[dF].L.R}$PEPTIDE1,PEPTIDE2,7:R3-7:R3$$$V2.0), the Kb at BK2 receptor [2] was 10 nM; at BK2 receptor [1] (Table E, read-out: GPI pA2 (converted)), 63.1 nM.

For the molecule `CC(C)C[C@H](NC(=O)[C@@H](Cc1ccccc1)NC(=O)[C@H](CO)NC(=O)[C@H](Cc1ccccc1)NC(=O)CNC(=O)[C@@H]1C[C@@H](O)CN1C(=O)[C@@H]1CCCN1C(=O)[C@H](CCCNC(=N)N)NC(=O)[C@H](N)CS)C(=O)N[C@@H](CCCNC(=N)N)C(=O)O` [CP-0149] (HELM PEPTIDE1{[dC].R.P.[Hyp].G.F.S.[dF].L.R}$$$$V2.0), on BK2 receptor [1] (setting [3]), the Kb was 200 nM.

`CC(C)C[C@H](NC(=O)[C@@H](Cc1ccccc1)NC(=O)[C@H](CO)NC(=O)[C@H](CS)NC(=O)CNC(=O)[C@@H]1C[C@@H](O)CN1C(=O)[C@@H]1CCCN1C(=O)[C@H](CCCNC(=N)N)NC(=O)[C@H](N)CCCNC(=N)N)C(=O)N[C@@H](CCCNC(=N)N)C(=O)O` [CP-0144] (HELM PEPTIDE1{[dR].R.P.[Hyp].G.C.S.[dF].L.R}$$$$V2.0): at BK2 receptor [1] (setting [3]), the Kb is 398 nM.

On to `CC(C)C[C@H](NC(=O)[C@@H](Cc1ccccc1)NC(=O)[C@H](CO)NC(=O)[C@H](Cc1ccccc1)NC(=O)CNC(=O)[C@@H]1C[C@@H](O)CN1C(=O)[C@@H]1CCCN1C(=O)[C@H](CSC1CC(=O)N(CCCCCCN2C(=O)CC(SC[C@H](NC(=O)[C@H](N)CCCNC(=N)N)C(=O)N3CCC[C@H]3C(=O)N3C[C@H](O)C[C@H]3C(=O)NCC(=O)N[C@@H](Cc3ccccc3)C(=O)N[C@@H](CO)C(=O)N[C@H](Cc3ccccc3)C(=O)N[C@@H](CC(C)C)C(=O)N[C@@H](CCCNC(=N)N)C(=O)O)C2=O)C1=O)NC(=O)[C@H](N)CCCNC(=N)N)C(=O)N[C@@H](CCCNC(=N)N)C(=O)O` (stereo partly drawn) [CP-0153] (HELM PEPTIDE1{[dR].C.P.[Hyp].G.F.S.[dF].L.R}|PEPTIDE2{[dR].C.P.[Hyp].G.F.S.[dF].L.R}|CHEM1{[O=C1CC([*:1])C(=O)N1CCCCCCN1C(=O)CC([*:2])C1=O]}$PEPTIDE1,CHEM1,2:R3-1:R1|PEPTIDE2,CHEM1,2:R3-1:R2$$$V2.0), for which the Kb on BK2 receptor [1] (setting [3]) was 25.1 nM.
